US20110136776A1, “Copper(1)Chloride Complex of Nicotinic Acid and Pharmaceutical Compositions Containing the Same” (priority 2008, published 2011)

Test system: fatigue
Details: all types of fatigue: unexplained fatigue, chronic fatigue syndrome, fibromyalgia

Substance: [CuCl (Nicotinic acid)2 H20]complex [The complex]
- Effect in chronic fatigue (muscle pain, physical activity, productivity, depression): relieved the muscle pain, increased the physical activity and productivity
